Counter-ions that a name gives are not always drawn.
molecular target: T1, human GPR52 (Homo sapiens, UniProt Q9Y2T5); test: Increase of intracellular cAMP concentration in human GPR52-expressing CHO cell (AlphaScreen cAMP assay); type: cell-based; conditions: 0.5 h; test compound 10 µm, 37°C, 30 min, human GPR52-expressing CHO(dhfr-) cells; 100% = cAMP with 1 µM N-(2-hydroxyethyl)-3-[2-[3-(trifluoromethyl)benzyl]-1-benzofuran-4-yl]benzamide, 0% = DMSO; read-out: GPR52 agonist activity (%)
T1 construct: expressed in transfected cells; host or cells: CHO(dhfr-) cells
Protocol: Increase of intracellular cAMP concentration in human GPR52-expressing CHO cell
Using OptiPlate-384 (PerkinElmer Inc.), 1×10^4 human GPR52-expressing CHO(dhfr-) cells were incubated together with a test compound ([…]) in an assay buffer (30 µL, HBSS (containing Ca^2+ and Mg^2+), 0.5% BSA, 100 µM IBMX, 100 µM Ro20-1724, 5 mM HEPES (pH 7.55)) at 37°C for 30 min. Thereafter, according to the protocol of AlphaScreen cAMP Assay Kit (PerkinElmer Inc.), the intracellular cAMP concentration was measured by EnVision (PerkinElmer Inc.). The GPR52 agonist activity was calculated, assuming the intracellular cAMP concentration in the presence of 1 µM N-(2-hydroxyethyl)-3-[2-[3-(trifluoromethyl)benzyl]-1-benzofuran-4-yl]benzamide to be 100% and assuming the intracellular cAMP concentration when DMSO was added instead of the test compound to be 0%.

T1 sequence (Q9Y2T5 whole entry): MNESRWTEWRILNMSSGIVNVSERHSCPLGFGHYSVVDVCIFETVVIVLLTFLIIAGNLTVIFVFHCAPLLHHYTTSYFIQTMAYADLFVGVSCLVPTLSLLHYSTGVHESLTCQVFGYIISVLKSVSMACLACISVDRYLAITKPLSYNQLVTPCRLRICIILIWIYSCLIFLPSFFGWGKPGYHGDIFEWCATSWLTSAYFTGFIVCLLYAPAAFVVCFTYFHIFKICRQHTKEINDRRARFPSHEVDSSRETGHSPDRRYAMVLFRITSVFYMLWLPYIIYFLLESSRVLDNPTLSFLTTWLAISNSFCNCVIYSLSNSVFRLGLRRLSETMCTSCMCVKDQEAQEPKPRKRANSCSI

Compound | activation at 10 µM [%]
C=Cc1nc(Cc2cccc(C(F)(F)F)c2)sc1NC(=O)c1ccnn1C [Example 12, N-{4-ethenyl-2-[3-(trifluorornethyl)benzyl]-1,3-thiazol-5-yl}-1-methyl-1H-pyrazole-5-carboxamide] | 75
Cc1nc(Cc2cccc(C(F)(F)F)c2)sc1NC(=O)c1c(C)nn(C)c1C [Example 47, 1,3,5-trimethyl-N-{4-methyl-2-[3-(trifluoromethyl)-benzyl]-1,3-thiazol-5-yl}-1H-pyrazole-4-carboxamide] | 82
CCN1CC(C(=O)Nc2sc(Cc3cccc(C(F)(F)F)c3)nc2C)CC1=O (stereo not drawn) [Example 4, 1-ethyl-N-(4-methyl-2-[3-(trifluoromethyl)benzyl]-1,3-thiazol-5-yl}-5-oxopyrrolidine-3-carboxamide] | 72
CCCCc1nc(Cc2cccc(C(F)(F)F)c2)sc1NC(=O)c1ccnn1C [Example 16, N-{4-butyl-2-[3-(trifluoromethyl)benzyl]-1,3-thiazol-5-yl}-1-methyl-1H-pyrazole-5-carboxamide] | 72
Cc1nc(Cc2cccc(C3CC3)c2)sc1NC(=O)c1ccnn1C [Example 227, N-[2-(3-cyclopropylbenzyl)-4-methyl-1,3-thiazol-5-yl]-1-methyl-1H-pyrazole-5-carboxamide] | 101
Cc1nc(C(O)c2cccc(C(F)(F)F)c2)sc1NC(=O)c1ccnn1C (stereo not drawn) [Example 210, N-(2-{hydroxy[3-(trifluoromethyl)phenyl]methyl}-4-methyl-1,3-thiazol-5-yl)-1-methyl-1H-pyrazole-5-carboxamide] | 82
CSc1ncccc1C(=O)Nc1sc(Cc2cccc(C(F)(F)F)c2)nc1C [Example 76, 2-(methylsulfanyl)-N-{4-methyl-2-[3-(trifluoromethyl)-benzyl]-1,3-thiazol-5-yl}pyridine-3-carboxamide] | 86
Cc1nc(Cc2cccc(C(F)(F)F)c2)sc1NC(=O)C1CCNCC1 [Example 33, N-{4-methyl-2-[3-(trifluoromethyl)benzyl]-1,3-thiazol-5-yl}piperidine-4-carboxamide hydrochloride] | 70
Cc1nc(Cc2cccc(C(F)(F)F)c2)sc1NC(=O)c1ccoc1C [Example 40, 2-methyl-N-{4-methyl-2-[3-(trifluoromethyl)-benzyl]-1,3-thiazol-5-yl}furan-3-carboxamide] | 80
Cc1nc(Cc2cccc(C(F)(F)F)c2)sc1NC(=O)C1(C#N)CC1 [Example 39, 1-cyano-N-{4-methyl-2-[3-(trifluoromethyl)benzyl]-1,3-thiazol-5-yl}cyclopropanecarboxamide] | 79
CCCc1nc(Cc2cccc(C(F)(F)F)c2)sc1NC(=O)c1ccnn1C [Example 14, 1-methyl-N-{4-propyl-2-[3-(trifluoromethyl)benzyl]-1,3-thiazol-5-yl}-1H-pyrazole-5-carboxamide] | 80

Other lines, results leading:

activation at 10 µM [%] | Compound
69 | Cc1nc(Cc2cc(F)cc(Cl)c2)sc1NC(=O)c1ccnn1C(F)F [Example 150, N-[2-(3-chloro-5-fluorobenzyl)-4-methyl-1,3-thiazol-5-yl]-1-(difluoromethyl)-1H-pyrazole-5-carboxamide]
81 | COCCn1nccc1C(=O)Nc1sc(Cc2cc(F)cc(Cl)c2)nc1C [Example 161, N-[2-(3-chloro-5-fluorobenzyl)-4-methyl-1,3-thiazol-5-yl]-1-(2-methoxyethyl)-1-pyrazole-5-carboxamide]
74 | Cc1nc(Cc2ccc(F)c(F)c2)sc1NC(=O)c1ccnn1C [Example 160, N-[2-(3,4-difluorobenzyl)-4-methyl-1,3-thiazol-5-yl]-1-methyl-1H-pyrazole-5-carboxamide]
72 | Cc1nc(Cc2cc(F)cc(Cl)c2)sc1NC(=O)Cn1cnnn1 [Example 252, N-[2-(3-chloro-5-fluorobenzyl)-4-methyl-1,3-thiazol-5-yl]-2-(1H-tetrazol-1-yl)acetamide]
75 | Cc1nc(Cc2cc(F)cc(Cl)c2)sc1NC(=O)c1cc(Cl)nn1C [Example 149, 3-chloro-N-[2-(3-chloro-5-fluorobenzyl)-4-methyl-1,3-thiazol-5-yl]-1-methyl-1H-pyrazole-5-carboxamide]
86 | CCc1cc(C(=O)Nc2sc(Cc3cc(F)cc(Cl)c3)nc2C)n(C)n1 [Example 177, N-[2-(3-chloro-5-fluorobenzyl)-4-methyl-1,3-thiazol-5-yl]-3-ethyl-1-methyl-1H-pyrazole-5-carboxamide]
70 | Cc1nc(Cc2cc(F)cc(Cl)c2)sc1NC(=O)c1ccc(=O)n(C)c1 [Example 167, N-[2-(3-chloro-5-fluorobenzyl)-4-methyl-1,3-thiazol-5-yl]-1-methyl-6-oxo-1,6-dihydropyridine-3-carboxamide]
76 | Cc1nc(Cc2cc(F)cc(Cl)c2)sc1NC(=O)c1nc([N+](=O)[O-])cn1C [Example 169, N-[2-(3-chloro-5-fluorobenzyl)-4-methyl-1,3-thiazol-5-yl]-1-methyl-4-nitro-1H-imidazole-2-carboxamide]
78 | COCCNC(=O)[C@@H]1C[C@H]1C(=O)Nc1sc(Cc2cc(F)cc(Cl)c2)nc1C (relative stereo) [Example 189, trans-N-[2-(3-chloro-5-fluorobenzyl)-4-methyl-1,3-thiazol-5-yl]-N'-(2-methoxyethyl)cyclopropane-1,2-dicarboxamide]
80 | Cc1nc(Cc2cc(F)cc(Cl)c2)sc1NC(=O)c1c(C)ncn1C [Example 179, N-[2-(3-chloro-5-fluorobenzyl)-4-methyl-1,3-thiazol-5-yl]-1,4-dimethyl-1H-imidazole-5-carboxamide]
70 | Cc1nc(Cc2cc(F)cc(Cl)c2)sc1NC(=O)c1ccnn1CC(C)C [Example 162, N-[2-(3-chloro-5-fluorobenzyl)-4-methyl-1,3-thiazol-5-yl]-1-(2-methylpropyl)-1H-pyrazole-5-carboxamide]
78 | Cc1nc(Cc2cc(F)cc(Cl)c2)sc1NC(=O)c1ccnn1CC(N)=O [Example 234, 1-(carbamoylmethyl)-N-[2-(3-chloro-5-fluorobenzyl)-4-methyl-1,3-thiazol-5-yl]-1H-pyrazole-5-carboxamide]
78 | Cc1nc(Cc2cc(F)cc(Cl)c2)sc1NC(=O)c1ccnn1CC(F)(F)F [Example 163, N-[2-(3-chloro-5-fluorobenzyl)-4-methyl-1,3-thiazol-5-yl]-1-(2,2,2-trifluoroethyl)-1H-pyrazole-5-carboxamide]
76 | Cc1nc(Cc2ccc(F)c(Cl)c2)sc1NC(=O)c1ccnn1C [Example 156, N-[2-(3-chloro-4-fluorobenzyl)-4-methyl-1,3-thiazol-5-yl]-1-methyl-1H-pyrazole-5-carboxamide]
75 | Cc1nc(Cc2cc(F)cc(Cl)c2)sc1NC(=O)c1ncn(C)c1C [Example 180, N-[2-(3-chloro-5-fluorobenzyl)-4-methyl-1,3-thiazol-5-yl]-1,5-dimethyl-1H-imidazole-4-carboxamide]
89 | Cc1nc(Cc2cc(F)cc(Cl)c2)sc1NC(=O)C1(S(C)(=O)=O)CC1 [Example 172, N-[2-(3-chloro-5-fluorobenzyl)-4-methyl-1,3-thiazol-5-yl]-1-(methylsulfonyl)cyclopropanecarboxamide]
70 | Cc1nc(Cc2cc(F)cc(Cl)c2)sc1NC(=O)c1cc(S(C)(=O)=O)nn1C [Example 246, N-[2-(3-chloro-5-fluorobenzyl)-4-methyl-1,3-thiazol-5-yl]-1-methyl-3-(methylsulfonyl)-1H-pyrazole-5-carboxamide]
71 | Cc1nc(Cc2cc(F)cc(Cl)c2)sc1NC(=O)c1cc(CC#N)nn1C [Example 230, N-[2-(3-chloro-5-fluorobenzyl)-4-methyl-1,3-thiazol-5-yl]-3-(cyanomethyl)-1-methyl-1H-pyrazole-5-carboxamide]
82 | COc1cccc(Cc2nc(C)c(NC(=O)c3ccnn3C)s2)c1 [Example 219, N-[2-(3-methoxybenzyl)-4-methyl-1,3-thiazol-5-yl]-1-methyl-1H-pyrazole-5-carboxamide]
80 | Cc1nc(Cc2cc(F)cc(Cl)c2)sc1NC(=O)c1cc(CN2CCOCC2)nn1C [Example 238, N-[2-(3-chloro-5-fluorobenzyl)-4-methyl-1,3-thiazol-5-yl]-1-methyl-3-(morpholinomethyl)-1H-pyrazole-5-carboxamide monohydrochloride]

same assay, conditions: test compound 10 µm, 37°C, 30 min, human GPR52-expressing CHO(dhfr-) cells; 100% = cAMP with 1 µM N-(2-hydroxyethyl)-3-[2-[3-(trifluoromethyl)benzyl]-1-benzofuran-4-yl]benzamide, 0% = DMSO

Compound | GPR52 agonist activity (%)
CCNC(=O)N1CCC(C(=O)Nc2sc(Cc3cccc(C(F)(F)F)c3)nc2C)C1 (stereo not drawn) [Example 23, N1-ethyl-N3-{4-methyl-2-[3-(trifluoromethyl)benzyl]-1,3-thiazol-5-yl}pyrrolidine-1,3-dicarboxamide] | 80
Cc1nc(Cc2cccc(C(F)(F)F)c2)sc1NC(=O)C1CCNC1 (stereo not drawn) [Example 20, N-{4-methyl-2-[3-(trifluoromethyl)benzyl]-1,3-thiazol-5-yl}pyrrolidine-3-carboxamide hydrochloride] | 74
